The text below walks through data of patent US12116388B2, “Amylin receptor agonists” (Novo Nordisk A/S, priority 2022, dated 2024).

pEC50: −log10 of the molar value. Starred links: 1 amine or outer side, 2 acyl side, 3 side chain; linkers in the order of their positions; H or OH if unused. Residues, ends and D or L forms follow the SMILES beside them. *: point of attachment. C20 diacid = O=C(O)CCCCCCCCCCCCCCCCCCC(=O)*; C18 diacid = O=C(O)CCCCCCCCCCCCCCCCC(=O)*; γGlu = O=C(O)[C@H](CCC(=O)[*:2])N[*:1]

The nature of data set [1]: Oral pharmacokinetic profiles in Beagle dogs (SNAC tablets). The class given is in vivo. To be noted: oral tablet: 3 mg compound, 300 mg SNAC, 7.7 mg magnesium stearate; for half-life: male, dog, plasma, read-out: T½ (converted). On the procedure: To be able to evaluate oral exposure following tablet dosing, tablet compositions comprising the test substance and SNAC (sodium N-(8-(2-hydroxybenzoyl)amino)caprylate) were prepared by mixing test substance with roller compacted SNAC and magnesium stearate as, e.g., described in WO 2019/149880.
This assay was performed to measure the oral bioavailability of a compound. The assay determined the exposure of test compound following oral administration in Beagle dogs as described by relevant pharmacokinetic parameters and plasma concentration curves.
Preparation of tablets for oral administration: tablets containing test compound used for the assay described herein were immediate release SNAC-based tablets. The test compound was spray-dried as neutral sodium salt (pH 7-8). Dry granulation was carried out by roller compaction on a Gerteis MINI-PACTOR. Tablets containing 3 mg test compound, 300 mg sodium N-(8-(2-hydroxybenzoyl)amino)caprylate (SNAC) and 7.7 mg magnesium stearate were produced on at Kilian Style One using 7.2×12 mm punches.
Determination of the absorption following oral administration: eight (8) male Beagle dogs, 1 to 8 years of age and weighing approximately 10-15 kg at the start of the studies, were used. The dogs were group-housed in pens (12 hours light:12 hours dark), and fed individually and restrictedly once daily with Royal Canin Medium Adult dog (Royal Canin Products, China Branch, or Brogaarden A/S, Denmark). Exercise and group social were permitted daily, whenever possible. The dogs were used for repeated pharmacokinetic studies with a suitable wash-out period between successive dosing. An appropriate acclimatisation period was given prior to initiation of the first pharmacokinetic study. All handling, dosing and blood sampling of the animals were performed by trained and skilled staff. Before the studies the dogs were fasted overnight and from 0 to 4 h after dosing. Besides, the dogs were restricted to water 1 hour before dosing until 4 hours after dosing, but otherwise had ad libitum access to water during the whole period.
Tablets containing the test compound were administered in the following manner: 10 min prior to tablet administration the dogs were dosed subcutaneously with approximately 3.2 nmol/kg of glucagon. The tablets were placed in the back of the mouth of the dog to prevent chewing. The mouth was then closed, and 10 mL of tap water was given by a syringe to facilitate swallowing of the tablet. Blood was sampled at predefined time points for up till 288 hours after dosing to adequately cover the full plasma concentration-time absorption profile of the compound. For each blood sampling time point approximately 1.2 mL of whole blood was collected in a 1.5 mL EDTA coated tube, and the tube was gently turned to allowing mixing of the sample with the EDTA. Then, the blood samples were kept on ice until centrifugation (4 min, 4° C., 4000 rpm). Plasma was pipetted into Micronic tubes on dry ice and kept at −20° C. until analysis. Blood samples were taken as appropriate, for example from a venflon in the cephalic vein in the front leg for the first 2 hours and then with syringe from the jugular vein for the rest of the time points (the first few drops were allowed to drain from the venflon to avoid heparin saline from the venflon in the sample).
Bioanalysis was carried out as follows: plasma concentrations of test compound were assayed by plasma protein precipitation and analysed by liquid chromatography-mass spectrometry (LC-MS). Calibrators were prepared by spiking blank dog plasma with analytes to reach the final concentrations in the range typically from 0.5 to 200 nM. Calibrators, plasma blanks or study samples were prepared for LC-MS by protein precipitation by adding 3 volumes of ethanol followed by centrifugation at 4000 rpm at 4° C. for 1 h. The supernatant was diluted with 2 volumes of Milli-Q water containing 0.1% formic acid before injection on the LC-MS system. […]

Data set [2] deals with T1, human amylin receptor (hAMYR3) (Homo sapiens, UniProt O60896+P30988).
T1 construct: host or cells: BHK (Baby Hamster Kidney), Hollex-1 cell line further transfected with RAMP3
T1 sequence (P30988 25-474): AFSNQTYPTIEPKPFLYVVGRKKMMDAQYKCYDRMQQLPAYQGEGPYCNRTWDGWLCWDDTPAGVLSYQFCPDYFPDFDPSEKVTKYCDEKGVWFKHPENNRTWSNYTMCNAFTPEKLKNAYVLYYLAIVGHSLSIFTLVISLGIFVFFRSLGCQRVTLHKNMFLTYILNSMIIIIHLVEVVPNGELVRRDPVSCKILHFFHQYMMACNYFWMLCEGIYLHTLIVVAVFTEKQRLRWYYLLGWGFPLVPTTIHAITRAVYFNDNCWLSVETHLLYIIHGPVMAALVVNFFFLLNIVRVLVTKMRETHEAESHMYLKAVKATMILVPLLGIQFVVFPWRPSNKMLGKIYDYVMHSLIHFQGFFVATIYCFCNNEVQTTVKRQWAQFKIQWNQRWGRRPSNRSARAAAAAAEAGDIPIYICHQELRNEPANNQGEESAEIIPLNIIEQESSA
T1 sequence (O60896 24-148): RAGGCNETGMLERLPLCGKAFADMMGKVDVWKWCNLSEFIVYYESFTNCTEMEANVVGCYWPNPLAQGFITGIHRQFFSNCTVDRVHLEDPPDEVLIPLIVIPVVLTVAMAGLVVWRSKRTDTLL
The experiment in a line: Human amylin receptor (hAMYR3) in vitro potency assay, CRE-luciferase reporter in BHK cells. To be noted: BHK hAMYR3/CRE-Luc cells, 3 hours incubation, assay buffer with 1% ovalbumin. The format is cell-based. The method, boiled down:
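Luminescence from a CRE-driven luciferase reporter reflects cAMP-mediated receptor activation. Peptides were serially diluted (7 concentrations, 7-fold steps, typically starting near 10 nM) in buffer with 1% ovalbumin and applied for 3 h at 37 °C to BHK cells co-expressing calcitonin receptor (a) and RAMP3.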
For orientation: Reporter assays use an easily measured gene product as a stand-in for the process of interest.

One may read the pEC50 as −log10 of the EC50, conventionally taken in molar units. With `CC[C@H](C)[C@H](NC(=O)[C@H](C)NC(=O)CNC(=O)[C@H](Cc1ccccc1)NC(=O)[C@@H]1CCCN1C(=O)[C@H](CC(=O)O)NC(=O)[C@H](CO)NC(=O)[C@H](CO)NC(=O)[C@H](Cc1c[nH]cn1)NC(=O)[C@H](Cc1c[nH]cn1)NC(=O)[C@H](CC(C)C)NC(=O)[C@H](Cc1ccccc1)NC(=O)[C@H](CCC(=O)O)NC(=O)[C@H](C)NC(=O)[C@H](CC(C)C)NC(=O)[C@H](CCCNC(=N)N)NC(=O)[C@H](C)NC(=O)[C@@H](NC(=O)[C@H](CCC(N)=O)NC(=O)[C@H](C)NC(=O)[C@@H](NC(=O)[C@H](CO)NC(=O)[C@H](CC(C)C)NC(=O)[C@H](Cc1c[nH]cn1)NC(=O)[C@H](CO)NC(=O)[C@H](C)NC(=O)CC[C@H](NC(=O)CCCCCCCCCCCCCCCCC(=O)O)C(=O)O)[C@@H](C)O)[C@@H](C)O)C(=O)N1CCC[C@H]1C(=O)N[C@@H](CO)C(=O)N[C@@H](CO)C(=O)N[C@H](C(=O)N[C@@H](CC(=O)O)C(=O)N[C@H](C(=O)NCC(=O)N1CCC[C@H]1C(=O)N[C@@H](CC(=O)O)C(=O)N[C@H](C(=O)N1CCC[C@H]1C(N)=O)[C@@H](C)O)C(C)C)[C@@H](C)O` [Compound 25, N^1-[(4S)-4-carboxy-4-(17-carboxyheptadecanoylamino)butanoyl]-[Ala1,Ser2,His3,Leu4,Ser5,Ala7,Gln8,Ala10,Glu14,His17,Asp21,Pro22,Pro27,Asp31,Pro34,Asp35,Pro37]-human amylin] ({C18 diacid-γGlu}-ASHLSTAQTARLAEFLHHSSDPFGAIPSSTDVGPDTP-NH2), in data set [1], the half-life is 152 h, the “AUC/D” value was 24.15 kg·h/L and the “Cmax/D” value came out at 0.34 kg/L. Besides, in data set [2], the pEC50 is 11.90.
For the compound `CC[C@H](C)[C@H](NC(=O)[C@H](C)NC(=O)CNC(=O)[C@H](Cc1ccccc1)NC(=O)[C@@H]1CCCN1C(=O)[C@H](CC(=O)O)NC(=O)[C@H](CO)NC(=O)[C@H](CO)NC(=O)[C@H](Cc1c[nH]cn1)NC(=O)[C@H](Cc1c[nH]cn1)NC(=O)[C@H](CC(C)C)NC(=O)[C@H](Cc1ccccc1)NC(=O)[C@H](CCC(=O)O)NC(=O)[C@H](C)NC(=O)[C@H](CC(C)C)NC(=O)[C@H](CCCNC(=N)N)NC(=O)[C@H](CCC(N)=O)NC(=O)[C@@H](NC(=O)[C@H](CCC(N)=O)NC(=O)[C@H](C)NC(=O)[C@@H](NC(=O)[C@H](CO)NC(=O)[C@H](CC(C)C)NC(=O)[C@H](CO)NC(=O)CNC(=O)[C@H](C)NC(=O)CC[C@H](NC(=O)CCCCCCCCCCCCCCCCC(=O)O)C(=O)O)[C@@H](C)O)[C@@H](C)O)C(=O)N1CCC[C@H]1C(=O)N[C@@H](CO)C(=O)N[C@@H](CO)C(=O)N[C@H](C(=O)N[C@@H](CC(=O)O)C(=O)N[C@H](C(=O)NCC(=O)N1CCC[C@H]1C(=O)N[C@@H](CC(=O)O)C(=O)N[C@H](C(=O)N1CCC[C@H]1C(N)=O)[C@@H](C)O)C(C)C)[C@@H](C)O` [Compound 10, N^1-[(4S)-4-carboxy-4-(17-carboxyheptadecanoylamino)butanoyl]-[Ala1,Gly2,Ser3,Leu4,Ser5,Ala7,Gln8,Glu14,His17,Asp21,Pro22,Pro27,Asp31,Pro34,Asp35,Pro37]-human amylin] ({C18 diacid-γGlu}-AGSLSTAQTQRLAEFLHHSSDPFGAIPSSTDVGPDTP-NH2), in data set [1], the half-life is 131 h, the “AUC/D” value is 27.73 kg·h/L and the “Cmax/D” value is recorded as 0.34 kg/L. In addition, in data set [2], the pEC50 is 11.84.
Regarding `CC[C@H](C)[C@H](NC(=O)[C@H](C)NC(=O)CNC(=O)[C@H](Cc1ccccc1)NC(=O)[C@@H]1CCCN1C(=O)[C@H](CC(=O)O)NC(=O)[C@H](CO)NC(=O)[C@H](CO)NC(=O)[C@H](Cc1c[nH]cn1)NC(=O)[C@H](Cc1c[nH]cn1)NC(=O)[C@H](CC(C)C)NC(=O)[C@H](Cc1ccccc1)NC(=O)[C@H](CCC(=O)O)NC(=O)[C@H](C)NC(=O)[C@H](CC(C)C)NC(=O)[C@H](CCCNC(=N)N)NC(=O)[C@H](CCC(N)=O)NC(=O)[C@@H](NC(=O)[C@H](CCC(N)=O)NC(=O)[C@H](C)NC(=O)[C@@H](NC(=O)[C@H](CO)NC(=O)[C@H](CC(C)C)NC(=O)[C@H](Cc1c[nH]cn1)NC(=O)[C@H](CO)NC(=O)[C@H](C)NC(=O)CC[C@H](NC(=O)CCCCCCCCCCCCCCCCC(=O)O)C(=O)O)[C@@H](C)O)[C@@H](C)O)C(=O)N1CCC[C@H]1C(=O)N[C@@H](CO)C(=O)N[C@@H](CO)C(=O)N[C@H](C(=O)N[C@@H](CC(=O)O)C(=O)N[C@H](C(=O)NCC(=O)N1CCC[C@H]1C(=O)N[C@@H](CC(=O)O)C(=O)N[C@H](C(=O)N1CCC[C@H]1C(N)=O)[C@@H](C)O)C(C)C)[C@@H](C)O` [Compound 8, N^1-[(4S)-4-carboxy-4-(17-carboxyheptadecanoylamino)butanoyl]-[Ala1,Ser2,His3,Leu4,Ser5,Ala7,Gln8,Glu14,His17,Asp21,Pro22,Pro27,Asp31,Pro34,Asp35,Pro37]-human amylin] ({C18 diacid-γGlu}-ASHLSTAQTQRLAEFLHHSSDPFGAIPSSTDVGPDTP-NH2), in data set [1], the half-life is 121 h, the “AUC/D” value came to 17.52 kg·h/L and the “Cmax/D” value is 0.24 kg/L. The negative logarithm of the EC50 (pEC50) in data set [2] was 11.82.
The corresponding values for `CC[C@H](C)[C@H](NC(=O)[C@@H]1CCCN1C(=O)CNC(=O)[C@H](Cc1ccccc1)NC(=O)[C@H](Cc1c[nH]cn1)NC(=O)[C@H](Cc1c[nH]cn1)NC(=O)[C@H](CC(C)C)NC(=O)[C@H](Cc1ccccc1)NC(=O)[C@H](CCC(=O)O)NC(=O)[C@H](C)NC(=O)[C@H](CC(C)C)NC(=O)[C@H](CCCNC(=N)N)NC(=O)[C@H](CCC(N)=O)NC(=O)[C@@H](NC(=O)[C@H](CCC(N)=O)NC(=O)[C@H](C)NC(=O)[C@@H](NC(=O)[C@H](CO)NC(=O)[C@H](CC(C)C)NC(=O)[C@H](Cc1c[nH]cn1)NC(=O)[C@H](CO)NC(=O)[C@H](C)NC(=O)CC[C@H](NC(=O)CCCCCCCCCCCCCCCCCCC(=O)O)C(=O)O)[C@@H](C)O)[C@@H](C)O)C(=O)N[C@@H](CC(C)C)C(=O)N1CCC[C@H]1C(=O)N1CCC[C@H]1C(=O)N[C@H](C(=O)N[C@@H](CC(=O)O)C(=O)N[C@H](C(=O)NCC(=O)N[C@@H](CO)C(=O)N[C@@H](CCC(=O)O)C(=O)N[C@H](C(=O)N1CCC[C@H]1C(N)=O)[C@@H](C)O)C(C)C)[C@@H](C)O` [Compound 4, N^1-[(4S)-4-carboxy-4-(19-carboxynonadecanoylamino)butanoyl]-[Ala1,Ser2,His3,Leu4,Ser5,Ala7,Gln8,Glu14,His17,Pro25,Pro28,Pro29,Asp31,Glu35,Pro37],des-(19-22)-human amylin] ({C20 diacid-γGlu}-ASHLSTAQTQRLAEFLHHFGPILPPTDVGSETP-NH2) are 130 h, 21.24 kg·h/L, 0.23 kg/L and 11.95.
